From PubChem BioAssay AID248 (DTP/NCI, 2004)
Values joined by “and” are separate entries in the source; they are usually repeats but may differ in a detail not shown here. Equal values may be shown once. Inconclusive results and toxic doses are left out. Rule as the data show it: active = T/C of 150% or more; inactive = T/C below 125%.

Test system: L1210 leukemia ip in BDF1 mice, survival T/C
Test: NCI In Vivo Anticancer Drug Screen. Data for tumor model L1210 Leukemia (intraperitoneal) in B6D2F1 (BDF1) mice
Details: endpoint: mean survival time, higher = longer survival
How it was run: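 Each compound was tested against a transplantable tumor grown in mice. The endpoint was survival, with treated animals benchmarked against vehicle controls as a simple ratio.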

[1] = dose: 100.0 mg/kg/injection, schedule: Q04DX003 (ip), vehicle: saline
[2] = dose: 100.0 mg/kg/injection, schedule: Q01DX001 (ip), vehicle: Klucel (hydroxypropylcellulose) (HPC)
[3] = dose: 100.0 mg/kg/injection, schedule: Q04DX003 (ip), vehicle: Klucel (hydroxypropylcellulose) (HPC)
[4] = dose: 200.0 mg/kg/injection, schedule: Q04DX003 (ip), vehicle: Klucel (hydroxypropylcellulose) (HPC)
[5] = dose: 400.0 mg/kg/injection, schedule: Q04DX003 (ip), vehicle: Klucel (hydroxypropylcellulose) (HPC)
[6] = dose: 100.0 mg/kg/injection, schedule: Q01DX009 (ip), vehicle: saline with Tween-80
[7] = dose: 200.0 mg/kg/injection, schedule: Q01DX009 (ip), vehicle: saline with Tween-80
[8] = dose: 400.0 mg/kg/injection, schedule: Q01DX009 (ip), vehicle: saline with Tween-80
[9] = dose: 100.0 mg/kg/injection, schedule: Q04DX003 (ip), vehicle: saline with Tween-80
[10] = dose: 100.0 mg/kg/injection, schedule: Q01DX001 (ip), vehicle: saline
[11] = dose: 200.0 mg/kg/injection, schedule: Q01DX001 (ip), vehicle: saline
[12] = dose: 100.0 mg/kg/injection, schedule: Q01DX001 (ip), vehicle: saline with Tween-80
[13] = dose: 200.0 mg/kg/injection, schedule: Q01DX001 (ip), vehicle: saline with Tween-80

Measured: T/C

C[Si](C)O[Si](C)C
inactive: [1] 91 % of control | dose: 200.0 mg/kg/injection, schedule: Q04DX003 (ip), vehicle: saline 101 % of control | dose: 400.0 mg/kg/injection, schedule: Q04DX003 (ip), vehicle: saline 101 % of control

Cc1ccc2ccccc2c1NCCC(=O)O
inactive: [2] 101 % of control | [3] 104 % of control | dose: 200.0 mg/kg/injection, schedule: Q01DX001 (ip), vehicle: Klucel (hydroxypropylcellulose) (HPC) 100 % of control | [4] 98 % of control | dose: 400.0 mg/kg/injection, schedule: Q01DX001 (ip), vehicle: Klucel (hydroxypropylcellulose) (HPC) 91 % of control | [5] 102 % of control

Cc1ccc(Nc2ccc([N+](=O)[O-])cc2)cc1
inactive: dose: 100.0 mg/kg/injection, schedule: Q01DX001 (ip), vehicle: gum acacia 93 % of control | dose: 200.0 mg/kg/injection, schedule: Q01DX001 (ip), vehicle: gum acacia 100 % of control

CNC(=O)O/N=C/c1cccc(OC)c1
inactive: [6] 93 % of control | [7] 100 % of control | [8] 95 % of control

CCCCCCCCCCCC(=O)[O][Pb]([CH2]C)([CH2]C)[CH2]C
inactive: dose: 6.25 mg/kg/injection, schedule: Q04DX003 (ip), vehicle: saline with Tween-80 101 % of control | dose: 12.5 mg/kg/injection, schedule: Q04DX003 (ip), vehicle: saline with Tween-80 102 % of control | [9] 106 % of control

CN(C)CCC(=O)c1ccc(-c2ccccc2)cc1
inactive: [3] 97 % of control | [4] 97 % of control

CC1(C)CS(=O)(=O)CC(C)(C)C(=O)C1=O
inactive: [2] 108 % of control

Cn1cnc([N+](=O)[O-])c1S(=O)(=O)NCN1CCOCC1
inactive: dose: 25.0 mg/kg/injection, schedule: Q01DX009 (ip), vehicle: Klucel (hydroxypropylcellulose) (HPC) 117 % of control | dose: 100.0 mg/kg/injection, schedule: Q01DX009 (ip), vehicle: Klucel (hydroxypropylcellulose) (HPC) 113 % of control | dose: 200.0 mg/kg/injection, schedule: Q01DX009 (ip), vehicle: Klucel (hydroxypropylcellulose) (HPC) 113 % of control

CCCCP(=S)(CCCC)N(CC)CC
inactive: [3] 101 % of control | [4] 104 % of control | [5] 93 % of control

Cn1ncc2[nH]c(=O)n(OS(=O)(=O)c3ccccc3)c(=O)c21
inactive: dose: 50.0 mg/kg/injection, schedule: Q01DX001 (ip), vehicle: saline 100 % of control | [10] 96 % of control | [11] 96 % of control | dose: 400.0 mg/kg/injection, schedule: Q01DX001 (ip), vehicle: saline 87 % of control

CN(C)C(=O)OCC[N+](C)(C)CCCCCCCCCC[N+](C)(C)CCOC(=O)N(C)C
inactive: dose: 0.63 mg/kg/injection, schedule: Q01DX009 (ip), vehicle: saline 94 % of control | dose: 1.25 mg/kg/injection, schedule: Q01DX009 (ip), vehicle: saline 98 % of control | dose: 2.5 mg/kg/injection, schedule: Q01DX009 (ip), vehicle: saline 93 % of control | dose: 5.0 mg/kg/injection, schedule: Q04DX003 (ip), vehicle: saline 94 % of control

Cc1cnc2c(N)nn(-c3ccccc3)c2n1
inactive: [6] 93 % of control | [9] 95 % of control | [7] 101 % of control | dose: 200.0 mg/kg/injection, schedule: Q04DX003 (ip), vehicle: saline with Tween-80 97 % of control | [8] 98 % of control | dose: 400.0 mg/kg/injection, schedule: Q04DX003 (ip), vehicle: saline with Tween-80 94 % of control

COc1ccc(C)cc1NC(=O)OCCOc1ccc(NC(C)=O)cc1
inactive: dose: 50.0 mg/kg/injection, schedule: Q01DX009 (ip), vehicle: saline with Tween-80 98 % of control | [6] 95 % of control | [7] 95 % of control

CC1C[N-]CC(C)C1.[CH-]=C(C)C.[Cl][Pt+2][Cl] (centres undefined)
inactive: dose: 50.0 mg/kg/injection, schedule: Q04DX003 (ip), vehicle: saline 115 % of control | [1] 111 % of control

COC(=O)c1ccc(=O)n(C/C=C(\C)CCC2OC2(C)C)c1 (centres undefined)
inactive: dose: 100.0 mg/kg/injection, schedule: Q04DX003 (ip), vehicle: water 100 % of control | dose: 200.0 mg/kg/injection, schedule: Q04DX003 (ip), vehicle: water 104 % of control | dose: 400.0 mg/kg/injection, schedule: Q04DX003 (ip), vehicle: water 102 % of control

CNNP1(=O)OCC(C)([N+](=O)[O-])CO1 (centres undefined)
inactive: [10] 101 % of control | [11] 101 % of control

CCC(C)C1NC(=O)C(NC(=O)c2c3nc4c(C(=O)NC5C(=O)NC(C(C)CC)C(=O)N6CCCC6C(=O)N(C)CC(=O)N(C)C(C(C)C)C(=O)OC5C)cc([N+](=O)[O-])c(C)c4oc-3c(C)c(=O)c2N)C(C)OC(=O)C(C(C)C)N(C)C(=O)CN(C)C(=O)C2CCCN2C1=O (centres undefined)
inactive: dose: 75.0 micrograms/kg/injection, schedule: Q01DX009 (ip), vehicle: saline + alcohol 111 % of control | dose: 100.0 micrograms/kg/injection, schedule: Q01DX009 (ip), vehicle: saline + alcohol 112 % of control | dose: 200.0 micrograms/kg/injection, schedule: Q01DX009 (ip), vehicle: saline + alcohol 122 % of control | dose: 300.0 micrograms/kg/injection, schedule: Q04DX003 (ip), vehicle: saline + alcohol 107 % of control | dose: 400.0 micrograms/kg/injection, schedule: Q04DX003 (ip), vehicle: saline + alcohol 108 % of control | dose: 600.0 micrograms/kg/injection, schedule: Q04DX003 (ip), vehicle: saline + alcohol 119 % of control

C[n+]1ccccc1/C=C/c1cccc([N+](=O)[O-])c1
inactive: dose: 5.0 mg/kg/injection, schedule: Q04DX003 (ip), vehicle: saline with Tween-80 101 % of control | dose: 10.0 mg/kg/injection, schedule: Q04DX003 (ip), vehicle: saline with Tween-80 90 % of control | dose: 20.0 mg/kg/injection, schedule: Q04DX003 (ip), vehicle: saline with Tween-80 100 % of control

O=C(Nc1ccc(C2=NCCN2)cc1)c1ccc2cc(C(=O)Nc3ccc(C4=NCCN4)cc3)ccc2c1
inactive: dose: 15.0 mg/kg/injection, schedule: Q01DX Z (ip), vehicle: carboxymethylcellulose (CMC) 123 % of control | dose: 120.0 mg/kg/injection, schedule: Q01DX Z (ip), vehicle: carboxymethylcellulose (CMC) 120 % of control

O=C(O)CCCCCN1C(=O)c2cccc([N+](=O)[O-])c2C1=O
inactive: [12] 110 % of control | [13] 109 % of control

CCCCCCCCCCCC[N+](CCCCCCCCCCCC)=C1SCCS1
inactive: dose: 1.56 mg/kg/injection, schedule: Q04DX003 (ip), vehicle: carboxymethylcellulose (CMC) 96 % of control | dose: 3.13 mg/kg/injection, schedule: Q04DX003 (ip), vehicle: carboxymethylcellulose (CMC) 104 % of control | dose: 6.25 mg/kg/injection, schedule: Q04DX003 (ip), vehicle: carboxymethylcellulose (CMC) 110 % of control

CC1CCCC(C)N1N (centres undefined)
inactive: [12] 97 % of control | [13] 93 % of control | dose: 400.0 mg/kg/injection, schedule: Q01DX001 (ip), vehicle: saline with Tween-80 95 % of control

CCC1CCN(CC)CC1
inactive: dose: 10.0 mg/kg/injection, schedule: Q01DX001 (ip), vehicle: saline 101 % of control | dose: 10.0 mg/kg/injection, schedule: Q01DX009 (ip), vehicle: saline 92 % of control and 102 % of control | dose: 10.0 mg/kg/injection, schedule: Q04DX002 (ip), vehicle: saline 100 % of control and 109 % of control | dose: 10.0 mg/kg/injection, schedule: Q04DX003 (ip), vehicle: saline 102 % of control | dose: 20.0 mg/kg/injection, schedule: Q01DX001 (ip), vehicle: saline 101 % of control | dose: 20.0 mg/kg/injection, schedule: Q01DX009 (ip), vehicle: saline 101 % of control and 108 % of control | dose: 20.0 mg/kg/injection, schedule: Q04DX002 (ip), vehicle: saline 100 % of control and 117 % of control | dose: 20.0 mg/kg/injection, schedule: Q04DX003 (ip), vehicle: saline 103 % of control | dose: 40.0 mg/kg/injection, schedule: Q01DX001 (ip), vehicle: saline 95 % of control | dose: 40.0 mg/kg/injection, schedule: Q01DX009 (ip), vehicle: saline 94 % of control | dose: 40.0 mg/kg/injection, schedule: Q04DX002 (ip), vehicle: saline 94 % of control and 102 % of control | dose: 40.0 mg/kg/injection, schedule: Q04DX003 (ip), vehicle: saline 102 % of control

CC(=O)CC(C)=Nc1cccc(N=C(C)CC(C)=O)c1
inactive: dose: 87.5 mg/kg/injection, schedule: Q04DX003 (ip), vehicle: saline with Tween-80 93 % of control | dose: 175.0 mg/kg/injection, schedule: Q04DX003 (ip), vehicle: saline with Tween-80 93 % of control | dose: 350.0 mg/kg/injection, schedule: Q04DX003 (ip), vehicle: saline with Tween-80 93 % of control
